How the values were obtained:
[1] = target: Serotonin receptor 2a and 2c (5HT2A and 5HT2C) (Rattus norvegicus) (UniProt P08909+P14842); assay: Ratio of binding affinity towards rat 5-HT2C and 5-HT2A receptors; type: protein assay
[2] = target: T1, 5-hydroxytryptamine receptor 2C (Rattus norvegicus, UniProt P08909); assay: Binding affinity against rat 5-hydroxytryptamine 2C receptor using [3H]mesulergine as radioligand
T1 sequence (P08909 whole entry): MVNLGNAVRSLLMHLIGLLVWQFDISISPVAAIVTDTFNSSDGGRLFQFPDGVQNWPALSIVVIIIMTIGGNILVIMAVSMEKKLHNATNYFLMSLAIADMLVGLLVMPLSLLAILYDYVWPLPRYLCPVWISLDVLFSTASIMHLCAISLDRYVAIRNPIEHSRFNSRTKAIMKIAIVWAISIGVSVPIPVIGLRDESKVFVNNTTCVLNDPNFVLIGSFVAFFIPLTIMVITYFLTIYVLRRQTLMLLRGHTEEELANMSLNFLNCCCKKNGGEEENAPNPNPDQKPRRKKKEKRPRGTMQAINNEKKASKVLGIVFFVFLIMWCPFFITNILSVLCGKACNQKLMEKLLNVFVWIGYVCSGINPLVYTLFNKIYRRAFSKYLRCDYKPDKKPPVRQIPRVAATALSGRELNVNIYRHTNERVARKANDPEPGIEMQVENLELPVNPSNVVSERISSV

[3] = target: T2, 5-hydroxytryptamine receptor 2A (Rattus norvegicus, UniProt P14842); assay: Binding affinity against rat 5-hydroxytryptamine 2A receptor using [3H]ketanserin as radioligand
T2 sequence (P14842 whole entry): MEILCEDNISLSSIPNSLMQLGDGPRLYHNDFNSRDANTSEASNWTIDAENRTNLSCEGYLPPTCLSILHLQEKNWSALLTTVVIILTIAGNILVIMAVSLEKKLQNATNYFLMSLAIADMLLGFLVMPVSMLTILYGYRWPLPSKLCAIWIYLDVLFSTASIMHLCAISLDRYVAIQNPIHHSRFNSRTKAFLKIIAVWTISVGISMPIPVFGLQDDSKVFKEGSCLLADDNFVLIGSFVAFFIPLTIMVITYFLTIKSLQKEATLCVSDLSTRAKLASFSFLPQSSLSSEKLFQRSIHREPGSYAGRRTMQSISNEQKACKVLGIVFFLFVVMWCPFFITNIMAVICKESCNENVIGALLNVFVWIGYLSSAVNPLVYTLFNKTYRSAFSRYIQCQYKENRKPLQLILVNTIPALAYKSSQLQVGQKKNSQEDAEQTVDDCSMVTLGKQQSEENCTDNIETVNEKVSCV

[4] = target: T2, 5-hydroxytryptamine receptor 2A; assay: Binding affinity against rat 5-hydroxytryptamine 2A receptor using [3H]DOB as radioligand

Chain of Serotonin receptor 2a and 2c (5HT2A and 5HT2C) (Rattus norvegicus) (P14842 whole entry, looked up, one chain of several): as the sequence (P14842 whole entry) above

Row | SMILES | Ratio [1] | Ki [2] | Ki [3] | Ki [4]
1 | COc1ccc(OC)c(CCN)c1 | 2 | 6400 nM | 2820 nM | 
2 | COc1ccc(CCCc2ccccc2)cc1CCN | 11 | 220 nM | 20 nM | 30 nM
3 | COc1cc(CCCc2ccccc2)ccc1CC(C)N (configuration not stated) | 11 |  |  | 
4 | COc1ccc(I)cc1CCN | 2 | 1640 nM | 700 nM | 211 nM
5 | COc1ccc(CCc2ccccc2)cc1CCN | 2 | 435 nM | 240 nM | 
6 | COc1cc(-c2ccccc2)ccc1CCN | < 1 | 1520 nM | 6720 nM | 4900 nM
7 | COc1ccc(O)cc1CCN | 1 | 4860 nM | 5960 nM | 1330 nM
8 | COc1cc(CCCCCc2ccccc2)ccc1CCN | < 1 | 19 nM | 72 nM | 18 nM
9 | COc1ccccc1CCN |  | > 10000 nM | > 10000 nM | > 10000 nM
10 | COc1ccc(-c2ccccc2)cc1CCN | 1 | 2870 nM | 3460 nM | 1520 nM
11 | COc1ccc(CCCc2ccccc2)cc1CC(C)N (configuration not stated) | 8 | 110 nM | 13 nM | 19 nM
12 | COc1ccc(Cc2ccccc2)cc1CCN | 1 | 230 nM | 176 nM | 
13 | COc1cc(OCCc2ccccc2)ccc1CCN | 5 | 810 nM | 172 nM | 110 nM
14 | COc1cc(CCCC2CCCCC2)ccc1CCN | < 1 | 116 nM | 438 nM | 250 nM
15 | COc1cc(CCCCc2ccccc2)ccc1CCN | 1 | 68 nM | 59 nM | 42 nM
16 | COc1cc(CCCc2ccccc2)ccc1CCN | 16 | 295 nM | 18 nM | 12 nM
17 | COc1ccc(C#CCCCc2ccccc2)cc1CCN | < 1 | 205 nM | 295 nM | 
18 | COc1ccc(Br)cc1CCN | 1 | 960 nM | 1000 nM | 208 nM
19 | COc1cc(C#CCCCc2ccccc2)ccc1CCN | < 1 | 70 nM | 295 nM | 240 nM
20 | COc1ccc(CCCCc2ccccc2)cc1CCN | 1 | 71 nM | 89 nM | 67 nM
21 | COc1ccc(CCCCCc2ccccc2)cc1CCN | 1 | 150 nM | 110 nM | 
22 | COc1ccc(OCc2ccccc2)cc1CCN | 1 | 410 nM | 345 nM | 255 nM
23 | COc1ccc(CCCC2CCCCC2)cc1CCN | < 1 | 198 nM | 380 nM | 760 nM
24 | COc1cc(CCc2ccccc2)ccc1CCN | 4 | 170 nM | 46 nM | 
25 | COc1ccc(OCCc2ccc(Br)cc2)cc1CCN | 1 | 115 nM | 91 nM | 35 nM
26 | COc1cc(Cc2ccccc2)ccc1CCN | 4 | 93 nM | 23 nM | 
27 | COc1ccc(OCCc2ccccc2)cc1CCN | 3 | 1790 nM | 600 nM | 440 nM

Reference: ChEMBL document CHEMBL1134617 (J Med Chem, 2001)
